# Laboratory results from patent US20220202753A1, “METHOD OF DELIVERY OF INTRAVENOUS BACLOFEN” (Allaysis, LLC, priority 2020, published 2022).
# How the values were obtained:
# [1] = Study 1: two-way crossover study of oral and intravenous baclofen in healthy adult volunteers; format: in vivo, human
# Text: Study 1: Two-Way Crossover Study of Oral and Intravenous Baclofen in Healthy Adult Volunteers
# The objective of the study was to characterize baclofen pharmacokinetics following oral and IV administration following low doses in healthy adult volunteers and determine the safety profile of an IV baclofen formulation.
# This study was a randomized, open label, balanced, two-treatment, single dose, crossover design in normal, healthy adult human subjects under fasting conditions.
# Initially, three adult volunteers received a single 3 mg IV and a 5 mg oral baclofen dose on separate study days. On the first day of drug administration in the study, one subject was given baclofen intravenously, and two subjects were given baclofen orally. On the second day of drug administration in the study, those that received baclofen orally received the TV dose and the individual who received the IV dose received the oral dose. Clinical tolerance was assessed, and plasma concentrations of baclofen were measured from the first three subjects before additional subjects were entered into the study. Nine additional adult volunteers received single 5 mg IV and 10 mg oral baclofen doses on separate days. Randomization occurred in a 1:1 ratio, such that all subjects received IV and oral baclofen on separate study days, but not necessarily in the same order. A total of twelve (12) subjects completed the clinical phase of the study. Plasma samples of 12 subjects were analyzed. However, the data from nine (9) subjects who received 5 mg IV and 10 mg oral tablet were considered for pharmacokinetic analysis and the calculation of within-subject variability. The three subjects who received 3 mg IV/5 mg oral baclofen were excluded from the pharmacokinetic analysis because more than half of the plasma concentrations were below the limit of quantitation (BLQ). Therefore, meaningful estimation of AUC was not possible for these subjects.
# [2] = Combined results of the two pilot pharmacokinetic studies (first in human and dose escalation); format: in vivo; details: for bioavailability: human, plasma
# Method: Two pilot studies were conducted to characterize baclofen pharmacokinetics and safety following intravenous administration and to access absolute bioavailability of IV and oral baclofen. These studies are described in: A Pilot Study Assessing Pharmacokinetics and Tolerability of Oral and Intravenous Baclofen in Healthy Adult Volunteers, Suresh K. Agarwal, Robert L. Kriel, James C. Cloyd, Lisa D. Coles, Lisa A. Scherkenbach, Michael H. Tobin, and Linda E. Krach, Journal of Child Neurology 2014, 30(1) 37-41; and A Randomized Dose Escalation Study of intravenous Baclofen in Healthy Volunteers: Clinical Tolerance and Pharmacokinetics, Schmitz N S, Krach L E, Coles L D, Mishra U, Agarwal S K, Cloyd J C, Kriel R L. PM&R, 2017, Volume 9(8), 743-750, both hereby incorporated by reference as though fully set forth herein. […] In order to meet bioequivalency criteria for both exposure (AUC) and peak concentration (Cmax), it was concluded that infusion times needed to be longer. To that end, modeling and simulation studies were performed to predict IV baclofen dosing regimens that would be bioequivalent to a 20 mg oral dose with respect to both AUC and Cm. These simulations formed the basis for a pivotal bioequivalence study where three different dosing regimens of baclofen IV (15 mg infused over 3 hours: 16 mg infused over 3 hours; and 16 mg infused over 4 hours, respectively) were compared to a single dose of a 20 mg oral tablet. Each of these IV regimens was bioequivalent to the 20 mg oral dosing but the 16 mg/3 hours dosing best met the bioequivalence criteria.
# An important goal for adjusting the dose and duration of a baclofen infusion was to achieve bioequivalent systemic exposure (Cmax and AUC) between a single-dose baclofen IV infusion and a 20 mg oral baclofen tablet.
# [3] = cited from earlier work
# [4] = Population pharmacokinetic modeling and simulation of IV baclofen infusion duration; design: species or system human
# Method: Plasma concentrations from cohorts 2 and 3 from Study 2 described above were used to build a two-compartment model simultaneously describing the IV and PO routes of administration. Population PK models were developed using data from cohort 3 and cohorts 2 and 3 combined (see FIGS. 4 and 5). It is worth noting that the PK parameter estimates from both study populations were similar. Two PK models with fixed absorption rate constants (Ka) of 0.6 and 0.8 hr^−1 were used. These were determined from estimates from the population pharmacokinetic model and literature.
# To assess the effect of infusion duration on Cmax and AUC, simulations were performed using the population PK parameter estimates determined from the baclofen dose ranging study. Using the models described above, simulations (n=10) of 30 subjects were completed using a 20 mg oral dose and IV doses of 15 and 16 mg infused over 120, 150, 180, and 210 minutes. The simulated data were then analyzed using non-compartmental analysis and bioequivalence of the maximum concentration and area under the curve was assessed. FIGS. 10 and 11 summarize how many times of the 10 simulations that the infusion rate met bioequivalence when 16 and 15 mg doses were used, respectively.
# To assess the effect of infusion duration on Cmax, a population pharmacokinetic model was developed using the observed plasma concentrations of baclofen following oral dosing of 20 mg and IV dosing of 15 mg infused over 10 and 60 minutes. Plasma concentrations of baclofen were best described by a two-compartment model, displaying a very rapid tissue distribution phase indicative of highly perfused tissues such as the liver, lung and brain and a more prolonged elimination phase. […] Using the PK model, baclofen concentrations for a 20t mg oral dose, a 15 mg IV dose infused over 180 minutes, and 16 mg IV dose infusions administered over 180 and 240 min were simulated. This allowed a determination of the effect of infusion duration on baclofen Cmax.
# [5] = Clinical bioequivalence study of baclofen injection compared to baclofen tablets in healthy adult volunteers; format: in vivo, human
# Text: This study was designed as a two-part, single-dose bioequivalence study of baclofen injection (test formulation) compared to commercial baclofen tablets (reference product) in healthy adult volunteers under fasted conditions. Part 1 of this study was a single-dose, open-label, four-treatment, randomized, crossover bioequivalence study of baclofen tablets and baclofen injection in healthy adults under fasted conditions. If needed, Part 2 of this study was to be a single-dose, two-way crossover between the most promising infusion of baclofen injection from Part 1 and baclofen tablets.
# Subjects were randomized to receive each of 4 treatments in a randomized, crossover fashion: • 15 mg of baclofen injection administered intravenously over 180 minutes • 16 mg of baclofen injection administered intravenously over 180 minutes • 16 mg of baclofen injection administered intravenously over 240 minutes • 20 mg of baclofen tablet administered orally
# Each treatment administration was separated by a washout period of at least 3 days. Each dose was administered following a 10-hour overnight fast.
# During each study period, 6 mL blood samples were obtained prior to study drug administration and at selected times through 48 hours after drug administration. In the study periods in which subjects received an IV infusion. PK sampling was timed relative to the start of the infusion. Plasma pharmacokinetic samples were analyzed for baclofen using a validated achiral bioanalytical method. Appropriate pharmacokinetic parameters were calculated for each formulation using non compartmental methods.
# Treatments A, B, and C: • Treatment A dose:=15 mg of baclofen injection administered intravenously over 180 minutes • Treatment B dose=16 mg of baclofen injection administered intravenously over 180 minutes • Treatment C dose=16 mg of baclofen injection administered intravenously over 240 minutes
# Control Product: Treatment D: • Baclofen Tablet, 20 mg, dose:=1×20 mg tablet
# Concentration-time data for baclofen were analyzed using noncompartmental methods in Phoenix™ WinNonlin® Version 6.3, Certara L.P.). During the pharmacokinetic analysis, concentrations below the limit of quantitation […] up to the time of the first quantifiable concentration were treated ac zero. Embedded (values between 2 quantifiable concentrations) and/or terminal BLQ concentrations were treated as “missing”. Actual sample times, relative to the time of dose, were used in the pharmacokinetic analysis.
# During each baclofen injection treatment period, samples were drawn at 0 hour (predose) and 0.5, 1.0, 1.5, 2.0, 2.5, 3.0, 3.5, 4.0, 4.5, 5.0, 6.0, 7, 8, 10, 12, 18, 24, 30, 36, and 48 hours after starting the infusion.
# During the baclofen tablet administration treatment period, samples were drawn at 0 hour (predose) and at 0.25, 0.5, 0.75, 1.0, 1.5, 2.0 3.0, 3.5, 4.0, 5.0, 6.0, 7, 8, 10, 12, 18, 24, 30, 36, and 48 hours after oral administration.
# [6] = Study 2: dose escalation study of IV baclofen in healthy adult volunteers; format: in vivo, human; details: for subjects with asymptomatic nystagmus: 10-minute infusion, of 12 subjects; for bioavailability: human, plasma
# Method: Study 2: Dose Escalation Study of IV Baclofen in Healthy Adult Volunteers
# Following completion of the first-in-human study, a dose escalation study of IV and oral baclofen in 36 healthy volunteers was carried out using a randomized crossover oral/IV dose design and incorporating the investigational baclofen IV injection. The objectives of the study were: 1) characterize the pharmacokinetics of clinically relevant doses of oral and intravenous baclofen, 2) determine the safety profile of oral and intravenous baclofen, and 3) estimate bioequivalence parameters (AUC and Cmax) for 10- and 60-minute (only 15 mg dose) infusions of baclofen.
# The general design of the study involved three cohorts of 12 subjects. Initially 3 subjects were randomized to receive the lowest dosing regimen. These subjects received a 7.5 mg IV infusion, followed by a washout period of 2 or more days, followed by a 10 mg oral dose. […] Twelve subjects completed Cohort 1 and received a […] IV and a 10 mg oral dose. The IV baclofen doses were based on a 75% bioavailability observed in the pilot study. In Cohort 2, 12 different subjects received 11.5 mg of IV and 15 mg of oral baclofen. In Cohort 3, another 12 subjects received 20 mg of oral and 15 mg of IV baclofen. Once all subjects had completed the 15 mg IV dose without complications, an additional dosing period was added to this Cohort in which 15 mg baclofen was infused over 60 in to 12 subjects. […] Blood samples were collected between 0-24 hours. A validated, liquid chromatography-mass spectroscopy assay was used to measure plasma baclofen concentrations.
# Pharmacokinetic analysis was performed with Phoenix (Centara), a pharmacokinetic data analysis package. Pharmacokinetic parameters, including the observed maximum concentration (Cmax), the observed time to maximum concentration (Tmax), area under the concentration-time curve (AUC), clearance (CL), and volume of distribution (Vd), were estimated using non-compartmental analysis. The absolute oral bioavailability was calculated by dividing the dose-normalized AUC after oral dosing by the dose-normalized AUC after intravenous dosing. For an exploratory study of bioequivalence, the 90% confidence intervals of the geometric mean AUC(0-t), AUC(0-∞) and Cmax oral/AV ratios were determined using the 60-minute infusion as the test dose and the oral […] dose as the reference.
# [7] = 5 mg IV infused over 15 minutes vs 10 mg oral
smiles,measurement,setting,value
"NCC(CC(=O)O)c1ccc(Cl)cc1 (centres unmarked) [baclofen, 4-amino-3-[4-chlorophenyl] butanoic acid]",AUC of IV dose compared with oral dose,[1]; [7],similar
same,Cmax of IV dose compared with oral dose,[1]; [7],higher
same,Tmax of IV dose compared with oral dose,[1]; [7],earlier
same,tolerability,[1]; 3 and 5 mg IV,well tolerated
same,bioavailability,"[1]; human, plasma, 10 mg oral vs 5 mg IV, n=9, fasting, read-out: estimated mean absolute bioavailability of oral baclofen",74%
same,bioavailability,"[2]; oral, 45 subjects, read-out: inter-patient range of % F",42 to 132%
same,bioavailability,"[2]; oral, two pilot studies, 10- to 60-minute IV infusions, healthy volunteers, read-out: estimated mean bioavailability of oral baclofen",74 to 85%
same,bioavailability,"[2]; po, 11.5 mg, read-out: mean oral bioavailability",80%
same,bioavailability,"[2]; po, 15 mg, read-out: mean oral bioavailability",85%
same,bioavailability,"[2]; po, 45 subjects, read-out: mean bioavailability of oral baclofen following a single dose",~86%
same,ratio of an IV to an oral dose,[2]; two prospective studies in healthy volunteers,80-85%
same,solubility in chloroform,[3]; chloroform,insoluble
same,solubility in methanol,[3]; methanol,very slightly soluble
same,solubility in water,[3]; water,2090 µg/mL
same,mean bioavailability,[4]; population PK model estimate,84%
same,population mean terminal t1/2 (β),[4]; two-compartment population PK model,approximately 4.2 hours
same,mean distribution t1/2,"[4]; two-compartment population PK model, 20 mg oral, 15 mg IV over 10 and 60 minutes",~0.3 h
same,geometric mean ratio vs. Treatment D (20 mg oral tablet) for AUClast,"[5]; 16 mg IV over 180 minutes, 90% CI 89.7-94.6%",92.1%
same,geometric mean ratio vs. Treatment D (20 mg oral tablet) for AUCinf,"[5]; 16 mg IV over 180 minutes, 90% CI 89.8-94.6%",92.2%
same,geometric mean ratio vs. Treatment D (20 mg oral tablet) for Cmax,"[5]; 16 mg IV over 180 minutes, 90% CI 93.7-101.0%",97.3%
same,median Tmax,"[5]; 20 mg oral tablet, fasted",1.0 h
same,conversion factor to the oral regimen giving bioequivalent substitution,[5]; IV administered over 180 minutes,0.8
same,bioequivalence to the 20 mg baclofen oral tablet,"[5]; all three IV infusions: 15 mg over 180 min, 16 mg over 180 min, 16 mg over 240 min",bioequivalent
same,half-life,"[5]; human, plasma, other: intravenous infusions and oral tablet, IV infusions and oral tablet, read-out: mean T1/2",5.5 to 5.8 h
same,difference in median Tmax (oral tablet earlier than IV infusions),"[5]; human, plasma, other: oral tablet versus intravenous infusions, 20 mg oral tablet vs IV infusions",2 to 3 h
same,Tmax,"[5]; human, plasma, across IV infusions (15 mg/180 min, 16 mg/180 min, 16 mg/240 min), read-out: median Tmax",3 to 4 h
same,clearance,"[5]; human, plasma, across IV infusions, read-out: mean total systemic clearance (CLT)",147 to 148 mL/min
same,Vd,"[5]; human, plasma, across IV infusions, read-out: mean volume of distribution (Vz)",69.8 to 71.4 L
same,subjects with asymptomatic nystagmus,[6]; 7.5 mg IV,2 subjects
same,subjects with asymptomatic nystagmus,[6]; 11.5 mg IV,6 subjects
same,subjects with asymptomatic nystagmus,[6]; 15 mg IV,6 subjects
same,subjects with mild transient ataxia,"[6]; 15 mg IV, 60-minute infusion",Two
same,subjects with nystagmus,"[6]; 15 mg IV, 60-minute infusion",two
same,bioequivalence of baclofen IV and oral baclofen by AUC0-t and AUC0-inf,[6]; 15 mg at 60-min infusion,not
same,subjects with mild transient ataxia,[6]; 20 mg oral,One
same,bioequivalence of IV infusions and oral baclofen by Cmax,[6]; 10- and 60-minute IV infusions,not bioequivalent
same,bioequivalence of baclofen IV and oral baclofen by AUC0-t and AUC0-inf,[6]; 10-min infusions at all dose levels,demonstrated
same,mean Cmax ratio of IV infusion to oral baclofen,"[6]; 10-minute IV infusion, CI 247-281%",263%
same,mean Cmax ratio of IV infusion to oral baclofen,"[6]; 60-minute IV infusion, CI 135-165%",149%
same,adverse effects,[6]; following both oral and IV doses,"Mild, self-limited"
same,bioavailability,"[6]; oral, all cohorts, read-out: estimated mean bioavailability",89%
same,bioavailability,"[6]; cohort 2 (11.5 mg IV, 15 mg oral), read-out: bioavailability estimate",85.8%
same,bioavailability,"[6]; cohort 3 (15 mg IV, 20 mg oral), read-out: bioavailability estimate",81.2%
same,subjects not awake (took 20 seconds to awaken),[6]; three and a half hours after a 10 mg oral dose,one
